The results in this text go back to ChEMBL document CHEMBL5584260, “Identification of coumarin - benzimidazole hybrids as potential antibacterial agents: Synthesis, in vitro and in vivo biological assessment, and ADMET prediction” (Bioorg Med Chem Lett, 2024).

Values after ≈ are worked out from the molar mass of the structure shown.

Series [1] concerns Pseudomonas aeruginosa. In words: Antibacterial activity against Pseudomonas aeruginosa ATCC 27853 assessed as inhibition of bacterial growth by CLSI protocol based microtiter broth dilution method. The class given is functional.
The next series has as its system Acinetobacter baumannii. In words: Antibacterial activity against Acinetobacter baumannii BAA-16051 assessed as inhibition of bacterial growth by CLSI protocol based microtiter broth dilution method. In kind it is functional.
Series [2] has as its system Klebsiella pneumoniae. In words: Antibacterial activity against Klebsiella pneumoniae ATCC 27736 assessed as inhibition of bacterial growth by CLSI protocol based microtiter broth dilution method. In kind it is functional.
In series [3] the test system is THP-1. The series is described as follows: Cytotoxicity against human THP-1 cells assessed as cell death at 100 uM incubated for 24 hrs by LDH assay (reference value: 0.00 +/- 0.56 %). The class given is toxicity, cell-based. Particulars: thp-1, 24 h.
A short description of series [4]: (§1) Cytotoxicity against human THP-1 cells assessed as cell survival at 50 uM incubated for 24 hrs by MTT assay (reference value: 100.0 +/- 5.24 %). The class given is toxicity, cell-based. Particulars: THP-1 cells, read-out: Activity.
In series [5] the test system is Klebsiella pneumoniae. In words: Antimicrobial activity against Klebsiella pneumoniae ATCC 27736 infected in neutropenic thigh infection BALB/c mouse model assessed as log reduction in bacterial count in thigh at 50 mg/kg pre-infected with bacteria for 3 to 6 hrs followed by compound administration and measured 36 hrs post infection. Particulars: time 30-33 hrs. In kind it is functional.

A short description of series [6]: (§2) Cytotoxicity against human THP-1 cells assessed as cell survival at 100 uM incubated for 24 hrs by MTT assay (reference value: 100.0 +/- 5.24 %). Particulars: THP-1 cells, read-out: Activity. The class given is toxicity, cell-based.
Series [7] relates to THP-1. In words: Cytotoxicity against human THP-1 cells assessed as cell death at 50 uM incubated for 24 hrs by LDH assay (reference value: 0.00 +/- 0.56 %). In kind it is toxicity, cell-based. The following applies: thp-1, 24 h.
Series [8] relates to Pseudomonas aeruginosa. The series is described as follows: Antibacterial activity against Pseudomonas aeruginosa incubated for 16 hrs by CLSI protocol based microtiter broth dilution method. The class given is functional.
For series [9], the system named is Staphylococcus aureus. The series is described as follows: Antibacterial activity against Staphylococcus aureus incubated for 16 hrs by CLSI protocol based microtiter broth dilution method. The class given is functional.
Series [10] deals with Bacillus subtilis. In words: Antibacterial activity against Bacillus subtilis incubated for 16 hrs by CLSI protocol based microtiter broth dilution method. In kind it is functional.
The test system of series [11] is Escherichia coli. The series is described as follows: Antibacterial activity against Escherichia coli incubated for 16 hrs by CLSI protocol based microtiter broth dilution method. The class given is functional.
The test system of series [12] is Bacillus subtilis. In words: Antibacterial activity against Bacillus subtilis incubated for 24 hrs by serial broth dilution method. In kind it is functional.
In series [13] the test system is Escherichia coli. In words: Antibacterial activity against Escherichia coli incubated for 24 hrs by serial broth dilution method. In kind it is functional.
Series [14] has as its system Pseudomonas aeruginosa. In words: Antibacterial activity against Pseudomonas aeruginosa incubated for 24 hrs by serial broth dilution method. The class given is functional.
Series [15] concerns Staphylococcus aureus. The series is described as follows: Antibacterial activity against Staphylococcus aureus incubated for 24 hrs by serial broth dilution method. In kind it is functional.
Series [16] deals with THP-1. Described as §1. The class given is toxicity, cell-based. Particulars: thp-1, 24 h, 50 µM.
Series [17] has as its system THP-1. The series is described as §2. The following applies: thp-1, 24 h, 100 µM. The class given is toxicity, cell-based.

`O=c1oc2ccc(Br)cc2cc1-c1nc2ccccc2n1-c1ccc(Cl)cc1`: the MIC in the series on Pseudomonas aeruginosa [1], with Acinetobacter baumannii and in the series on Klebsiella pneumoniae [2] was over 100 µg/mL throughout.

For `O=c1oc2ccc(Br)cc2cc1-c1nc2ccccc2n1-c1ccccc1`, the MIC in the series with Pseudomonas aeruginosa [1], with Acinetobacter baumannii and with Klebsiella pneumoniae [2] was over 100 µg/mL in each case.

As to `Cc1ccc(-n2c(-c3cc4cc(Br)ccc4oc3=O)nc3ccccc32)cc1`, the MIC with Pseudomonas aeruginosa [1], with Acinetobacter baumannii and with Klebsiella pneumoniae [2] was over 100 µg/mL each time.

Consider `Cc1ccc(-n2c(-c3cc4cc(Cl)ccc4oc3=O)nc3ccccc32)cc1`, for which the MIC in the series on Pseudomonas aeruginosa [1], in the series on Acinetobacter baumannii and with Klebsiella pneumoniae [2] was over 100 µg/mL each time.

On to `Cc1ccc(-n2c(-c3cc4ccccc4oc3=O)nc3ccccc32)cc1`, for which the Activity in the series with THP-1 [3] is 16.88%; in the series on THP-1 [7], 11.25%. The viability at 24 h, 50 µM in series [4] was determined as 94.1%. Besides, the “log(activity)” value with Klebsiella pneumoniae [5] is on record as over 2. Further, the figures for the minimum inhibitory concentration (MIC) with Pseudomonas aeruginosa [1], in the series on Acinetobacter baumannii and with Klebsiella pneumoniae [2] were over 100 µg/mL, over 100 µg/mL and 6.25 µg/mL (≈ 17.7 µM), respectively. The viability at 24 h, 100 µM in [6] was determined as 27.3%.

For `O=c1oc2ccc(Br)cc2cc1-c1nc2ccccc2n1-c1ccc(Br)cc1`, the MIC in the series on Pseudomonas aeruginosa [1], with Acinetobacter baumannii and in the series on Klebsiella pneumoniae [2] was over 100 µg/mL throughout.

With `O=c1oc2ccccc2cc1-c1nc2ccccc2n1-c1ccccc1`, the MIC in the series on Pseudomonas aeruginosa [1], in the series with Acinetobacter baumannii and in the series with Klebsiella pneumoniae [2] was over 100 µg/mL throughout.

With `CN[C@H](CC(C)C)C(=O)N[C@H]1C(=O)N[C@@H](CC(N)=O)C(=O)N[C@H]2C(=O)N[C@H]3C(=O)N[C@H](C(=O)N[C@H](C(=O)O)c4cc(O)cc(O)c4-c4cc3ccc4O)[C@H](O)c3ccc(c(Cl)c3)Oc3cc2cc(c3O[C@@H]2O[C@H](CO)[C@@H](O)[C@H](O)[C@H]2O[C@H]2C[C@](C)(N)[C@H](O)[C@H](C)O2)Oc2ccc(cc2Cl)[C@H]1O` [VANCOMYCIN], the Activity is listed as 13.88% with THP-1 [3] and 6.99% in the series on THP-1 [7]. Besides, the viability at 24 h, 50 µM in series [4] was 66.1%. Moreover, the values for the MIC in the series with Pseudomonas aeruginosa [1], in the series on Acinetobacter baumannii and with Klebsiella pneumoniae [2] were over 50 µg/mL, 12.5 µg/mL (≈ 8.63 µM) and over 50 µg/mL, respectively. In addition, the viability at 24 h, 100 µM in series [6] is 65.9%.

With `O=c1oc2ccc(Cl)cc2cc1-c1nc2ccccc2n1-c1ccccc1`, the MIC in the series with Pseudomonas aeruginosa [1], with Acinetobacter baumannii and with Klebsiella pneumoniae [2] was over 100 µg/mL each time.

With POLYMYXIN B [listing 1 of 2 here], the MIC in the series on Pseudomonas aeruginosa [1] was found to be 1.25 µg/mL; in the series on Acinetobacter baumannii it was 3.12 µg/mL; with Klebsiella pneumoniae [2], 1.25 µg/mL.

As to `C[C@@H](O)[C@H]1C(=O)N2C(C(=O)O)=C(S[C@@H]3CN[C@H](C(=O)N(C)C)C3)[C@H](C)[C@H]12` [MEROPENEM], the MIC in the series on Pseudomonas aeruginosa [1] was 6.25 µg/mL (≈ 16.3 µM); with Acinetobacter baumannii, over 50 µg/mL; with Klebsiella pneumoniae [2], 0.78 µg/mL (≈ 2.03 µM).

As for `O=c1oc2ccc(Br)cc2cc1-c1nc2ccccc2[nH]1`, the MIC with Pseudomonas aeruginosa [1], with Acinetobacter baumannii and in the series with Klebsiella pneumoniae [2] was over 100 µg/mL throughout.

As for `O=c1oc2ccccc2cc1/C(Cn1cnc2ccccc21)=N\Oc1ccc(Cl)cc1`, the MIC was determined as 3.12 µg/mL (≈ 7.26 µM) with Pseudomonas aeruginosa [8], 1.56 µg/mL (≈ 3.63 µM) against Staphylococcus aureus [9], 0.95 µg/mL (≈ 2.21 µM) in the series on Bacillus subtilis [10] and 3.12 µg/mL (≈ 7.26 µM) in the series with Escherichia coli [11].

`O=c1oc2ccccc2cc1-c1nc2ccccc2n1-c1ccc(Br)cc1`: the MIC in the series on Pseudomonas aeruginosa [1], in the series on Acinetobacter baumannii and in the series on Klebsiella pneumoniae [2] was over 100 µg/mL each time.

Regarding `O=C(CC(Sc1nc2ccccc2[nH]1)c1ccccc1)c1cc2ccccc2oc1=O` (configuration not stated), the MIC was 2300 µg/mL (≈ 5390 µM) in the series with Bacillus subtilis [12], 2100 µg/mL (≈ 4920 µM) with Escherichia coli [13], 2200 µg/mL (≈ 5160 µM) against Pseudomonas aeruginosa [14] and 2400 µg/mL (≈ 5630 µM) against Staphylococcus aureus [15].

In the case of `O=c1oc2ccccc2cc1-c1nc2ccccc2n1-c1ccc(Cl)cc1`, the minimum inhibitory concentration (MIC) in the series on Pseudomonas aeruginosa [1], in the series with Acinetobacter baumannii and with Klebsiella pneumoniae [2] was over 100 µg/mL in each case.

Take POLYMYXIN B [listing 2 of 2 here]: the Activity in the series with THP-1 [3] was determined as 30.59%; in the series on THP-1 [16], 72.77%; in the series on THP-1 [17] it was 54.94%; with THP-1 [7], 19.64%.

As to `O=c1oc2ccc(Cl)cc2cc1-c1nc2ccccc2n1-c1ccc(Cl)cc1`, the minimum inhibitory concentration (MIC) with Pseudomonas aeruginosa [1], with Acinetobacter baumannii and in the series with Klebsiella pneumoniae [2] was over 100 µg/mL throughout.

For `O=c1oc2ccccc2c(O)c1C(Sc1nc2ccccc2[nH]1)c1ccc(O)cc1` (configuration not stated), the MIC against Bacillus subtilis [12] and in the series with Escherichia coli [13] was 250 µg/mL (≈ 600 µM) throughout.

Consider `O=c1oc2ccc(Cl)cc2cc1-c1nc2ccccc2n1-c1ccc(Br)cc1`, for which the MIC with Pseudomonas aeruginosa [1], with Acinetobacter baumannii and in the series on Klebsiella pneumoniae [2] was over 100 µg/mL each time.

Turning to `O=c1oc2ccc(Cl)cc2cc1-c1nc2ccccc2[nH]1`, the minimal inhibitory concentration (MIC) in the series with Pseudomonas aeruginosa [1], in the series on Acinetobacter baumannii and in the series with Klebsiella pneumoniae [2] was over 100 µg/mL in each case.

On to `CCCCn1c(-c2cc3ccccc3oc2=O)nc2ccccc21`, for which the Activity with THP-1 [3] worked out at 11.43%; in the series with THP-1 [7], 8.01%. The viability at 24 h, 50 µM in series [4] is 89.7%. The “log(activity)” value in the series on Klebsiella pneumoniae [5] is on record as over 2. In addition, the MIC in the series on Pseudomonas aeruginosa [1] is over 100 µg/mL; in the series on Acinetobacter baumannii, over 100 µg/mL; with Klebsiella pneumoniae [2], 6.25 µg/mL (≈ 19.6 µM). For the same compound, the viability at 24 h, 100 µM in series [6] was 27.7%.
